Results reported in patent US20230212222A1 (ANYGEN CO., LTD., priority 2020, published 2023).
Square brackets hold non-standard residues; d marks the D form. Peptide text beside a SMILES is read from it. * marks the point of attachment. His(Trt) = N[C@@H](Cc1cn(C(c2ccccc2)(c2ccccc2)c2ccccc2)cn1)C(=O)O; Octanoyl = CCCCCCCC(=O)*

target: T1, GPR39 (Homo sapiens, UniProt O43194)
T1 sequence (O43194 1-453): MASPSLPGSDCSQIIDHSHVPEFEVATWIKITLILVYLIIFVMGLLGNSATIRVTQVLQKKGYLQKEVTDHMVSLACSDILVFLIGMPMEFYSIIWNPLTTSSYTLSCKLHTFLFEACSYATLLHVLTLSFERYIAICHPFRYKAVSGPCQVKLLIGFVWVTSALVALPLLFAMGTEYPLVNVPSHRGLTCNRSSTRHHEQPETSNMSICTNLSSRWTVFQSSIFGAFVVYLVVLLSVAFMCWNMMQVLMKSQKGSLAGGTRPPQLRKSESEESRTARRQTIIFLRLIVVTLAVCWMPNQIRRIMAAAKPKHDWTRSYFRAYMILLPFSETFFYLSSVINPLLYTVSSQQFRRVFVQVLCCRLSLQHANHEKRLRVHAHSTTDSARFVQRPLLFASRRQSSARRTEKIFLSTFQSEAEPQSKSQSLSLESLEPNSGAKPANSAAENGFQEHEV
Procedure: Specifically, the fibroblast cell line CV-1 (1×10^5 cells/ml, Korea Cell Line Bank) was cultured in a 96 well cell culture plate for 24 hours, and then treated with GPR39 inserted into adenovirus and SRE (serum response element) luciferase at 50 MOI (multiplicity of infection) and 25 MOI virus for 3 hours, respectively, and then cultured for 24 hours.

Row | ECmax (-fold induction over basal) | Compound
1 | 18.3 ± 1.8 -fold induction over basal | CCCCCCCC(=O)NCCCC[C@H](NC(=O)[C@@H](N)Cc1cn(C(c2ccccc2)(c2ccccc2)c2ccccc2)cn1)C(=O)N[C@@H](Cc1ccccc1)C(=O)O [HKFY-49, N6-octanoyl-N2-(Nt-trityl-L-histidyl)-L-lysyl-L-phenylalanine] (H-[His(Trt)]-Lys(Octanoyl)-Phe-OH)
2 | 16.2 ± 1.5 -fold induction over basal | CCCCCCCC(=O)NCCCC[C@H](NC(=O)[C@@H](N)Cc1cn(C(c2ccccc2)(c2ccccc2)c2ccccc2)cn1)C(=O)N[C@@H](Cc1ccccc1)C(=O)N[C@@H](CO)C(=O)O [HKFY-50, N6-octanoyl-N2-(Nt-trityl-L-histidyl)-L-lysyl-L-phenylalanyl-L-serine] (H-[His(Trt)]K(Octanoyl)FS-OH)
3 | 14.4 ± 1.9 -fold induction over basal | CCCCCCCC(=O)NCCCC[C@H](NC(=O)[C@@H](N)Cc1cn(C(c2ccccc2)(c2ccccc2)c2ccccc2)cn1)C(=O)N[C@@H](CC(C)C)C(=O)N[C@@H](Cc1ccc(O)cc1)C(=O)O [HKFY-51, N6-octanoyl-N2-(Nt-trityl-L-histidyl)-L-lysyl-L-leucyl-L-tyrosine] (H-[His(Trt)]K(Octanoyl)LY-OH)
4 | 15.5 ± 2.2 -fold induction over basal | C[C@H](NC(=O)[C@H](CCC(N)=O)NC(=O)[C@H](CCC(N)=O)NC(=O)[C@H](CC(=O)O)NC(=O)[C@H](Cc1ccc(O)cc1)NC(=O)[C@H](Cc1ccccc1)NC(=O)[C@@H](N)Cc1cn(C(c2ccccc2)(c2ccccc2)c2ccccc2)cn1)C(=O)N[C@@H](CCCNC(=N)N)C(=O)N[C@@H](Cc1ccccc1)C(N)=O [HKFY-52, (6S,9S,12S,15S,18S)-1-amino-6-(((S)-1-amino-1-oxo-3-phenylpropan-2-yl)carbamoyl)-18-((S)-2-((S)-2-((S)-2-amino-3-(1-trityl-1H-imidazol-4-yl)propanamido)-3-phenylpropanamido)-3-(4-hydroxyphenyl)propanamido)-12,15-bis(3-amino-3-oxopropyl)-1-imino-9-methyl-8,11,14,17-tetraoxo-2,7,10,13,16-pentaazaicosan-20-oic acid] (H-[His(Trt)]FYDQQARF-NH2)

The remaining lines, values behind:

Row | Compound | ECmax (-fold induction over basal)
5 | CCCCCCCC(=O)NCCCC[C@H](NC(=O)[C@@H](N)Cc1cn(C(c2ccccc2)c2ccc(F)cc2F)cn1)C(=O)N[C@H](Cc1ccc(C)cc1)C(=O)N[C@@H](Cc1ccc(O)cc1)C(=O)O (stereo partly drawn) [HKFY-32, ((2R)-2-((2S)-2-((2S)-2-amino-3-(1-((2,4-difluorophenyl)(phenyl)methyl)-1H-imidazol-4-yl)propanamido)-6-octanamidohexanamido)-3-(p-tolyl)propanoyl)-L-tyrosine] | 21.5 ± 2.7 -fold induction over basal
6 | CCCCCCCC(=O)NCCCC[C@H](NC(=O)[C@@H](N)Cc1cn(C(c2ccccc2)(c2ccccc2)c2ccccc2)cn1)C(=O)N[C@@H](Cc1ccccc1)C(=O)N[C@@H](Cc1ccc(O)cc1)C(=O)N[C@@H](CO)C(=O)N[C@@H](CC(=O)O)C(=O)N[C@@H](CCC(N)=O)C(=O)N[C@@H](CCC(N)=O)C(=O)N[C@@H](C)C(=O)N[C@@H](CCCNC(=N)N)C(=O)N[C@@H](Cc1ccccc1)C(N)=O [HKFY-38, (3S,6S,9S,12S,15S)-15-((S)-2-amino-3-(1-trityl-1H-imidazol-4-yl)propanamido)-12-benzyl-3-(((6S,9S,12S,15S)-1,18-diamino-6-(((S)-1-amino-1-oxo-3-phenylpropan-2-yl)carbamoyl)-12-(3-amino-3-oxopropyl)-1-imino-9-methyl-8,11,14,18-tetraoxo-2,7,10,13-tetraazaoctadecan-15-yl)carbamoyl)-9-(4-hydroxybenzyl)-6-(hydroxymethyl)-5,8,11,14,21-pentaoxo-4,7,10,13,20-pentaazaoctacosanoic acid] (H-[His(Trt)]K(Octanoyl)FYSDQQARF-NH2) | 16.5 ± 0.02 -fold induction over basal
7 | CCCCCCCC(=O)NCCCC[C@H](NC(=O)[C@@H](N)Cc1cn(C(c2ccccc2)(c2ccccc2)c2ccccc2)cn1)C(=O)N[C@@H](Cc1ccccc1)C(=O)N[C@@H](Cc1ccc(O)cc1)C(=O)N[C@@H](Cc1c[nH]cn1)C(=O)N[C@@H](CCC(N)=O)C(=O)N[C@@H](CCC(N)=O)C(=O)N[C@@H](C)C(=O)N[C@@H](CCCNC(=N)N)C(=O)N[C@@H](Cc1ccccc1)C(N)=O [HKFY-42, (S)-2-((2S,5S,8S,11S)-2-((1H-imidazol-4-yl)methyl)-11-((S)-2-amino-3-(1-trityl-1H-imidazol-4-yl)propanamido)-8-benzyl-5-(4-hydroxybenzyl)-4,7,10,17-tetraoxo-3,6,9,16-tetraazatetracosanamido)-N1-((S)-5-amino-1-(((S)-1-(((S)-1-(((S)-1-amino-1-oxo-3-phenylpropan-2-yl)amino)-5-guanidino-1-oxopentan-2-yl)amino)-1-oxopropan-2-yl)amino)-1,5-dioxopentan-2-yl)pentanediamide] (H-[His(Trt)]K(Octanoyl)FYHQQARF-NH2) | 11.8 ± 0.02 -fold induction over basal
8 | CCCCCCCC(=O)NCCCC[C@H](NC(=O)[C@@H](N)Cc1cn(C(c2ccccc2)(c2ccccc2)c2ccccc2)cn1)C(=O)N[C@@H](Cc1ccccc1)C(=O)N[C@@H](Cc1ccc(O)cc1)C(=O)N[C@@H](CCC(N)=O)C(=O)N[C@@H](CC(N)=O)C(=O)N[C@@H](CCC(N)=O)C(=O)N[C@@H](C)C(=O)N[C@@H](CCCNC(=N)N)C(=O)N[C@@H](Cc1ccccc1)C(N)=O [HKFY-43, (S)-N1-((S)-1-(((S)-1-(((S)-1-amino-1-oxo-3-phenylpropan-2-yl)amino)-5-guanidino-1-oxopentan-2-yl)amino)-1-oxopropan-2-yl)-2-((2S,5S,8S,11S,14S)-2-(2-amino-2-oxoethyl)-14-((S)-2-amino-3-(1-trityl-1H-imidazol-4-yl)propanamido)-5-(3-amino-3-oxopropyl)-11-benzyl-8-(4-hydroxybenzyl)-4,7,10,13,20-pentaoxo-3,6,9,12,19-pentaazaheptacosanamido)pentanediamide] (H-[His(Trt)]K(Octanoyl)FYQNQARF-NH2) | 12.1 ± 0.02 -fold induction over basal
9 | CCCCCCCC(=O)NCCCC[C@H](NC(=O)[C@@H](N)Cc1cn(C(c2ccccc2)(c2ccccc2)c2ccccc2)cn1)C(=O)N[C@@H](Cc1ccccc1)C(=O)N[C@@H](Cc1ccc(O)cc1)C(=O)N[C@@H](Cc1c[nH]c2ccccc12)C(=O)O [HKFY-44, N6-octanoyl-N2-(Nt-trityl-L-histidyl)-L-lysyl-L-phenylalanyl-L-tyrosyl-L-tryptophan] (H-[His(Trt)]K(Octanoyl)FYW-OH) | 20 ± 0.47 -fold induction over basal
10 | CCCCCCCC(=O)NCCCC[C@H](NC(=O)[C@@H](N)Cc1cn(C(c2ccccc2)(c2ccccc2)c2ccccc2)cn1)C(=O)N[C@@H](Cc1ccc(O)cc1)C(=O)N[C@@H](Cc1ccccc1)C(=O)O [HKFY-47, N6-octanoyl-N2-(Nt-trityl-L-histidyl)-L-lysyl-L-tyrosyl-L-phenylalanine] (H-[His(Trt)]K(Octanoyl)YF-OH) | 13 ± 1.7 -fold induction over basal
11 | CCCCCCCC(=O)NCCCC[C@H](NC(=O)[C@@H](N)Cc1cn(C(c2ccccc2)(c2ccccc2)c2ccccc2)cn1)C(=O)N[C@@H](Cc1ccc(O)cc1)C(=O)N[C@@H](Cc1ccc(O)cc1)C(=O)O [HKFY-48, N6-octanoyl-N2-(Nt-trityl-L-histidyl)-L-lysyl-L-tyrosyl-L-tyrosine] (H-[His(Trt)]K(Octanoyl)YY-OH) | 14.4 ± 2.7 -fold induction over basal
